Reference: US11940444B2, “Method of stabilizing molecules without refrigeration using water soluble polymers and applications thereof in performing chemical reactions” (priority 2013, dated 2024)

Legend:
[1] = Stability of 'all-in-one' luminescent pills at room storage condition; format: physicochemical
Experimental: All reagents for the luciferase assay except for adenosine triphospate (ATP) were casted in a single pullulan pill. For the pullulan pills aqueous solutions of 10 mM Luciferin, […], 27 mM Coenzyme A (CoA), 170 mM Dithiothreitol (DTT), 10 mM Ethylenediaminetetraacetic acid (EDTA), 107 mM MgCO3, and 267 mM MgSO4 were prepared. 200 μL of each solution was added to 8 mL of 12 w/v % Pullulan solution. Lastly, for each pill 47 μL of the final solution was pipetted onto a PET film and dried in a glove box under nitrogen. The casted pills were then stored at room temperature.
A buffer solution containing ATP was prepared to test the activity of the luciferase pills. For the buffer solution, 16 mL of water was added to 2 mL of 2.5 mM ATP and 2 mL of 200 mM Tricine and the pH was adjusted to pH 7.8.
Once the pills were completely dried, they were collected in dark bottles. The pills were stored at room temperature and the activity of the pills was tested over time. On the day the pills were prepared, the activity of the fresh pullulan and reagent solution was tested. 47 μL of the solution and 100 μL of the buffer were added to a 96 well-plate and the luminescence was measured using the TECAN M1000. On subsequent days, the activity of the pills was measured by placing a single pill into a well and 100 μL of ATP buffer. Each test was performed with three repeats.

Acetylcholinesterase = settings: Michaelis rate law, literature (Sadar and Laidler 1974); cited from earlier work
[2] = Long-term stability of AChE and IDA tablets stored at room temperature; format: physicochemical
Experimental: To test the ability of pullulan to retain IDA activity, 10 μL of 40 mM IDA and 40 μL of 120 g/L pullulan in water were mixed and casted in a polypropylene mold with wells with a size of 3 mm in diameter×3 mm in depth. The solution was air-dried overnight at 21° C. and 48% RH; tablet formation was considered not fully completed if the tablet could not be removed from the bottom of the well. […] To test IDA activity, 199 μL of Tris-HCl (100 mM, pH 8) was used to dissolve the pill and 1 μL of fresh 250 U/mL AChE was added. The solution was then transferred to a 96-well plate and the absorbance of the developing blue color was measured at A605 on a TECAN Infinite M200 Pro microtiter plate reader.
To test the ability of pullulan to retain AChE activity, 1 μL of 250 U/mL AChE and 40 μL of 120 g/L pullulan were mixed and casted into tablets. The solution was air-dried overnight at 21° C. and 48% RH; tablet formation was considered not fully completed if the tablet could not be removed from the bottom of the well; […] To test AChE activity, 195 μL of Tris-HCl (100 mM, pH 8) was used to dissolve the tablet and 5 μL of fresh 80 mM IDA was added. The solution was then transferred to a 96-well plate and the absorbance was measured at A605 on TECAN Infinite M200 Pro microtiter plate reader.

[3] = Testing IDA capsules and pullulan films (IDA protection); format: physicochemical
Experimental: 15 μL of IDA dissolved in methanol was added to a pullulan capsule (cast in an eppendorf tube lid), and sealed with a 5 mL (50 mg/mL, 3.5 cm petri dish) PVA film using a PVA glue solution. Another capsule was prepared with IDA in a powdered form. The capsules were left to determine if the PVA will serve as an oxygen barrier to protect the IDA from oxidation over a period of time
In order to determine if pullulan works to stabilize IDA when the IDA is mixed into the pullulan solution, a solution of 300 mg/mL pullulan was mixed, and 5 μL of IDA dissolved in methanol was added to each 30 μL of sample.
Five samples were cast (total volume of 35 μL) into the caps of 0.6 mL Eppendorf microcentrifuge tubes and left to dry. The activity of the IDA will be measured by: • i. checking for a pink/red color change, which indicates the IDA is hydrolysed or oxidized • ii. testing with AChE to ensure that a blue color change still results Pesticide Tests
Previously explored was the addition of IDA (solution and powder form) to two PVA capsules. 5 uL of IDA dissolved in methanol was added to one, and IDA in powder form was added to the other.
Also tested was one of the capsules with IDA solution cast into a pullulan film (in the lid of a 0.6 mL eppendorf tube). […]

[4] = AChE stability over time in pullulan (reaction rate with IDA, absorbance at 605 nm); format: physicochemical
Experimental: In order to quantify the protection that pullulan provides to AChE over time, it was attempted to create a set of samples (40) which will be tested over time. Each sample (cast into a 600 μL eppendorf tube) contains: • i. 40 μL of 200 mg/mL pullulan solution • ii. μL of AChE (250 U/L)
Each sample tube was allowed to dry, then was sealed and placed into a plastic bag and stored at ambient conditions (˜20° C.). At selected time points, the activity of the solution was tested by measuring absorbance over time, and finding the associated reaction rate (corresponding to the activity of the enzyme). To measure the activity, three (3) samples were taken (to establish triplicate repeats), and 195 μL of Tris buffer (100 mM, pH=8.0) was added to each Eppendorf tube and allowed to dissolve the […]. The resulting solution was then added to a 96 well plate, and absorbance was measured continuously at 605 nm after the addition of 5 μL of 80 mM IDA.

[5] = Loss of AChE activity as a function of temperature (30 min heat treatment); format: physicochemical; settings: 30-minute heat treatment at 50° C. or above
Experimental: To test the ability of pullulan to retain AChE activity, 1 μL of 250 U/mL AChE and 40 μL of 120 g/L pullulan were mixed and casted into tablets. The solution was air-dried overnight at 21° C. and 48% RH; tablet formation was considered not fully completed if the tablet could not be removed from the bottom of the well; and the resulting tablets were kept at room temperature for different lengths of time before being tested. To test AChE activity, 195 μL of Tris-HCl (100 mM, pH 8) was used to dissolve the tablet and 5 μL of fresh 80 mM IDA was added. The solution was then transferred to a 96-well plate and the absorbance was measured at A605 on TECAN Infinite M200 Pro microtiter plate reader.
The loss of AChE activity, however, is attributed to thermal denaturation. To further examine the role of pullulan in stabilizing AChE, activity of AChE was monitored as a function of temperature. For this experiment, native (unencapsulated) AChE and the corresponding pullulan tablet were treated at a given temperature for 30 min, followed by activity assessment at room temperature. […] In stark contrast, AChE tablets retained ca. 90% of their initial activity even after a 30-minute incubation at 90° C.

[6] = Comparison of AChE activity with different concentrations of pullulan after 2 weeks; format: physicochemical; settings: AChE in 125 and 250 mg/mL pullulan, 2 weeks age
Experimental: To determine the effect the concentration of pullulan has on the maintenance of the AChE enzyme two samples of 2 weeks age were tested (125 and 250 mg/mL). […] More trials will be conducted at 1 week intervals to determine if there is a noticeable color intensity difference over time.

[7] = ATCh stability (Ellman assay reagents); format: physicochemical; settings: several days in the refrigerator and in a fume hood with no protection
Experimental: When tested in solution, with the following amounts of reagents were used: • i. 15 uL ATCh (300 uM), 1 uL AChE (10 or 250 U/L) • ii. 50 uL of 500 uM DTNB • iii. 34 uL Tris
Acetylthiocholine (ATCh) is an unstable molecule, and will hopefully be stabilized on paper. However, after several tests were performed, it was noted that after being left in the refrigerator for several days, and left in a fume hood with no protection against hydrolyzation, the ATCh was still stable when tested. The most likely reason for the continued activity of the ATCh is due to the Tris buffer it was dissolved in being evaporated, and the ATCh in a solid (or powdered) form is stable. Accordingly, it should be reliable to store the ATCh as a powder form, preferably inside of a soluble (pullulan) capsule.

AChE = AChE (Electrophorus electricus, UniProt O42275); experiment: Pesticide tests in Eppendorf tubes (AChE/IDA color change); format: biochemical; settings: No. 1: malathion 10-2 mol/L, 5 μL AChE, 250 mg/mL pullulan, 30 μL, incubation 15 min
Experimental: Three trials were conducted with fresh malathion (from Bioninterfaces Institute), which was diluted with Tris buffer to a concentration of 10-2 mol/L. A control sample was also done with 5 μL of AChE and 250 mg/mL pullulan to ensure that a color change would occur. The color change was initially green (˜2 minutes), then became a blue color which increased in intensity over time.
Information about the contents and the results of each Eppendorf tube test with pesticides is presented below. A control test was performed with 5 μL of AChE and L of dH2O with 5 μL of IDA/methanol, and the color change to blue-green was very quick.

Luciferase = molecular target: T1, Luciferase (Photinus pyralis, UniProt P08659); experiment: ATP detection assay with luminescent pills; format: biochemical, Firefly
T1 construct: purchased Sigma-Aldrich
Experimental: The sensitivity of the luciferase assay was also investigated. To determine the detection limit of the assay, different ATP buffers were prepared with concentration ranging from 0 pM to 1000 pM and tested it with luminescent pills.

T1 sequence (P08659 whole entry): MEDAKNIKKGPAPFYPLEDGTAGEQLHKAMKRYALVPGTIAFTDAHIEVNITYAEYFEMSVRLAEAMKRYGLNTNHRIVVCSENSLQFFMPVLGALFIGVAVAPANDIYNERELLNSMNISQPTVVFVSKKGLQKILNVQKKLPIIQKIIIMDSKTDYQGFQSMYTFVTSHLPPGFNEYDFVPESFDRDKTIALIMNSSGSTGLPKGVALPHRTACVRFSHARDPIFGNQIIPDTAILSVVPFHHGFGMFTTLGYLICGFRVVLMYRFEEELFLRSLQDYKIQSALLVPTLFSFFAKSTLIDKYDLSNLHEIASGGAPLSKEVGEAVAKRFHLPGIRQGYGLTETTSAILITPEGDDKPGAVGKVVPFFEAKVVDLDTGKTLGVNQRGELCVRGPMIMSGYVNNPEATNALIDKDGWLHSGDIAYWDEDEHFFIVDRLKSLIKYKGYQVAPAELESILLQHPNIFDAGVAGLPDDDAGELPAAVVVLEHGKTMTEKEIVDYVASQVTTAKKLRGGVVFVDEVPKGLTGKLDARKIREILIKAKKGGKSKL
Sequence of AChE (O42275 24-633): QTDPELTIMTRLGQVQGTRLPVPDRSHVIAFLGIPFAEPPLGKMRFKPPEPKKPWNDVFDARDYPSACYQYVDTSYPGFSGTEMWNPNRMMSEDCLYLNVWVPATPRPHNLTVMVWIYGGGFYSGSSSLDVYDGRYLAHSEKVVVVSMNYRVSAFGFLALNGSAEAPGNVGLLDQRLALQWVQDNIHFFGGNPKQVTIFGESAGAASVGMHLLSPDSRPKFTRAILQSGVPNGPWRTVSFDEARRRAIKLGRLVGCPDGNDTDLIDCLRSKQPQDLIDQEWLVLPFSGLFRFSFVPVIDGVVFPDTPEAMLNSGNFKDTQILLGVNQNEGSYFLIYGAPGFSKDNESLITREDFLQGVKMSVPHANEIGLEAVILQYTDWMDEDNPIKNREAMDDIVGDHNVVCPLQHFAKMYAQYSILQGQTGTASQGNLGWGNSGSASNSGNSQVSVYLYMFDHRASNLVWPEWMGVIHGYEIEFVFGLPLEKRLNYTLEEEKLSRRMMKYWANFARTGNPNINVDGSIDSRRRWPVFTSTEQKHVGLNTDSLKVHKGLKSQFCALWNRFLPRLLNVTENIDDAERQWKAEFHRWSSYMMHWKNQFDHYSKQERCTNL

Luciferase
loss of activity in buffer ([1]; same components stored in buffer solution): loses its activity in buffer solution in few hours | activity of enzyme alone in pullulan pills ([1]; stored at room temperature): active even after four months

CC(=O)Oc1cn(C)c2ccccc12 [N-methylindoxyl acetate]
Km (Acetylcholinesterase): 2580 µM | kc (Acetylcholinesterase): 320 s⁻¹

indoxyl acetate [IDA]
complete inactivation ([2]; in solution at room temperature): completely inactive within a week | loss of activity ([2]; in solution at room temperature, within one day): 70% | time protected from hydrolyzation/oxidation ([3]; IDA solution cast into a pullulan film): ~2 weeks | IDA stability in PVA capsules ([3]; IDA solution or powder in PVA capsules, tested with AChE): kept stable over a period of two weeks

Acetylcholinesterase [AChE]
time to become completely inactive ([2]; stored in solution at room temperature): ≤ 3 days | activity as compared to a fresh sample ([4]; AChE cast in 200 mg/mL pullulan, stored at ambient conditions (~20 °C), over 30 days): approximately 63% | activity of AChE left out without pullulan ([4]; without any pullulan, left out for 24 hours): completely inactivated | activity after heat treatment [5]: completely inactive | activity of the enzyme over two weeks [6]: not much decreased

CC(=O)SCC[N+](C)(C)C [ATCh, Acetylthiocholine]
stability of ATCh [7]: still stable

CCOC(=O)CC(SP(=S)(OC)OC)C(=O)OCC (centres unmarked) [malathion]
Result (color change) (AChE): IDA/methanol. No color change at 5 minutes.

Nc1ncnc2c1ncn2[C@@H]1O[C@H](COP(=O)(O)OP(=O)(O)OP(=O)(O)O)[C@@H](O)[C@H]1O [ATP, Adenosine triphosphate]
limit of detection of ATP concentration (Luciferase; at 3a above background, tricine buffer): 16 pM | limit of detection as amount of ATP (Luciferase; in 100 uL added to the pill): 1.6 fmol
